Active and inactive are the calls of the source. No cut-off for these calls is given here. A value given as a limit tells only on which side of the number the result lay.

One data set deals with Bovine viral diarrhea virus 1. Description: Antiviral activity against Bovine viral diarrhea virus 1. The data set is classed as functional, organism-based. The settings on record: Bovine viral diarrhea virus isolates and strains.
In turn, `CCCCN1C[C@H](O)[C@@H](O)[C@H](O)[C@H]1CO` [MIGLUSTAT] had an EC50 of 100 µM.

The test system of another data set is Dengue virus. In words: Antiviral activity against Dengue virus. The data set is classed as functional, organism-based.
Settings: not given
As to `CCCCN1C[C@H](O)[C@@H](O)[C@H](O)[C@H]1CO` [MIGLUSTAT], the response was half-maximal at 100 µM (EC50).

Test system in another data set: not listed separately
In words: Antiviral activity against 1 MOI Bovine viral diarrhea virus NADL infected in MDBK cells assessed as reduction in viral titer after 72 hrs by plaque forming assay. In kind it is functional, cell-based, Bovine viral diarrhea virus 1-NADL. The settings on record: Bovine viral diarrhea virus isolates and strains.
On to `OC[C@@H]1[C@@H](O)[C@H](O)[C@@H](O)CN1CCCCCOCC1CC2CCC1C2` (some centres not stated), for which the EC50 was determined as 2.9 µM and the EC90 was 22 µM.
In the case of `Cc1ccc(C)c(OCCCCCCN2C[C@H](O)[C@@H](O)[C@H](O)[C@H]2CO)c1`, the EC50 is 3 µM and the EC90 was determined as 24.9 µM.
The like results for `CC1CCC(OCCCCCCN2C[C@H](O)[C@@H](O)[C@H](O)[C@H]2CO)CC1` (some centres not stated) were, in that order, 7.1 µM and 53 µM.
Taken in the same sequence, the figures for `CCCCCCCCCN1C[C@H](O)[C@@H](O)[C@H](O)[C@H]1CO` were 7.3 µM and 71 µM.
Taken in the same sequence, the figures for `OC[C@@H]1[C@@H](O)[C@H](O)[C@@H](O)CN1CCCCCCOC1CC2CCC1C2` (some centres not stated) were 4.5 µM and 47 µM.

Test system in another data set: not listed separately
In words: Cytotoxicity against MDBK cells by MTT assay. In kind it is cell-based, Bos taurus. The settings on record: cattle.
For `OC[C@@H]1[C@@H](O)[C@H](O)[C@@H](O)CN1CCCCCOCC1CC2CCC1C2` (some centres not stated), the CC50 is greater than 500 µM.
In turn, `Cc1ccc(C)c(OCCCCCCN2C[C@H](O)[C@@H](O)[C@H](O)[C@H]2CO)c1` yielded a CC50 of 485 µM.
Still for that read-out and setting: with `CC1CCC(OCCCCCCN2C[C@H](O)[C@@H](O)[C@H](O)[C@H]2CO)CC1` (some centres not stated) the figure was greater than 500 µM; with `CCCCCCCCCN1C[C@H](O)[C@@H](O)[C@H](O)[C@H]1CO`, 245 µM.
Still for that read-out and setting: the result for `OC[C@@H]1[C@@H](O)[C@H](O)[C@@H](O)CN1CCCCCCOC1CC2CCC1C2` (some centres not stated) reads greater than 500 µM.

Test system in a further data set: not listed separately
Description: Selectivity index, ratio of CC50 for bovine MDBK cells to EC50 for 1 MOI Bovine viral diarrhea virus infected in bovine MDBK cells. The data set is classed as toxicity, cell-based. The settings on record: cattle; read-out: Ratio CC50/EC50.
In the case of `OC[C@@H]1[C@@H](O)[C@H](O)[C@@H](O)CN1CCCCCOCC1CC2CCC1C2` (some centres not stated), the selectivity ratio was greater than 172.
On to `Cc1ccc(C)c(OCCCCCCN2C[C@H](O)[C@@H](O)[C@H](O)[C@H]2CO)c1`, for which the selectivity ratio stood at 162.
For the compound `CC1CCC(OCCCCCCN2C[C@H](O)[C@@H](O)[C@H](O)[C@H]2CO)CC1` (some centres not stated), the selectivity ratio is greater than 70.
On the same count and under the same terms, with `CCCCCCCCCN1C[C@H](O)[C@@H](O)[C@H](O)[C@H]1CO` the figure was 33; with `OC[C@@H]1[C@@H](O)[C@H](O)[C@@H](O)CN1CCCCCCOC1CC2CCC1C2` (some centres not stated), greater than 111.

A further data set has as its system MDBK. Description: Antiviral activity against 1 MOI Bovine viral diarrhea virus NADL infected in bovine MDBK cells assessed as inhibition of viral RNA replication at 100 uM after 12 hrs by RT-PCR. The data set is classed as functional, cell-based. The settings on record: Bovine viral diarrhea virus 1-NADL.
Take `CC1CCC(OCCCCCCN2C[C@H](O)[C@@H](O)[C@H](O)[C@H]2CO)CC1` (some centres not stated): the inhibition result was “inactive”.

Test system in another data set: not listed separately
In words: Antiviral activity against 1 MOI Bovine viral diarrhea virus NADL infected in bovine MDBK cells assessed as inhibition of viral RNA replication at 100 uM after 24 hrs by RT-PCR. In kind it is functional, Bovine viral diarrhea virus 1-NADL. The settings on record: Bovine viral diarrhea virus isolates and strains.
`CC1CCC(OCCCCCCN2C[C@H](O)[C@@H](O)[C@H](O)[C@H]2CO)CC1` (some centres not stated): the inhibition at 100 µM was found to be 40%.

A further data set has as its system MDBK. In words: Antiviral activity against 1 MOI Bovine viral diarrhea virus NADL infected in bovine MDBK cells assessed as inhibition of viral RNA replication at 80 uM after 12 hrs by RT-PCR. The data set is classed as functional, cell-based. The settings on record: Bovine viral diarrhea virus 1-NADL.
Turning to `CC1CCC(OCCCCCCN2C[C@H](O)[C@@H](O)[C@H](O)[C@H]2CO)CC1` (some centres not stated), the inhibition result was “inactive”.

Test system in another data set: not listed separately
Description: (§1) Antiviral activity against 1 MOI Bovine viral diarrhea virus NADL infected in bovine MDBK cells assessed as inhibition of viral RNA replication at 80 uM after 24 hrs by RT-PCR. In kind it is functional, Bovine viral diarrhea virus 1-NADL. The settings on record: Bovine viral diarrhea virus isolates and strains.
With `CC1CCC(OCCCCCCN2C[C@H](O)[C@@H](O)[C@H](O)[C@H]2CO)CC1` (some centres not stated), the inhibition at 80 µM came to 40%.

In the next data set the test system is MDBK. Described as §1. The data set is classed as functional. The settings on record: Bovine viral diarrhea virus 1-NADL.
On to `CC1CCC(OCCCCCCN2C[C@H](O)[C@@H](O)[C@H](O)[C@H]2CO)CC1` (some centres not stated), for which the inhibition entry is “Active”.

Test system in another data set: not listed separately
In words: Antiviral activity against 1 MOI Bovine viral diarrhea virus NADL infected in bovine MDBK cells assessed as inhibition of intracellular viral RNA production at 100 uM after 24 hrs by RT-PCR. The settings on record: Bovine viral diarrhea virus isolates and strains. The data set is classed as functional, Bovine viral diarrhea virus 1-NADL.
As for `CC1CCC(OCCCCCCN2C[C@H](O)[C@@H](O)[C@H](O)[C@H]2CO)CC1` (some centres not stated), the inhibition at 100 µM stood at 40%.

Test system in another data set: not listed separately
Description: Antiviral activity against 1 MOI Bovine viral diarrhea virus NADL infected in bovine MDBK cells assessed as inhibition of intracellular viral RNA production at 80 uM after 24 hrs by RT-PCR. In kind it is functional, Bovine viral diarrhea virus 1-NADL. The settings on record: Bovine viral diarrhea virus isolates and strains.
`CC1CCC(OCCCCCCN2C[C@H](O)[C@@H](O)[C@H](O)[C@H]2CO)CC1` (some centres not stated): the inhibition at 80 µM turned out to be 40%.

Test system in the next data set: not listed separately
Description: Antiviral activity against 1 MOI Bovine viral diarrhea virus NADL infected in bovine MDBK cells assessed as inhibition of extracellular viral RNA production at 100 uM after 24 hrs by RT-PCR. The data set is classed as functional, Bovine viral diarrhea virus 1-NADL. The settings on record: Bovine viral diarrhea virus isolates and strains.
For the compound `CC1CCC(OCCCCCCN2C[C@H](O)[C@@H](O)[C@H](O)[C@H]2CO)CC1` (some centres not stated), the inhibition at 100 µM amounted to 73%.

Test system in another data set: not listed separately
In words: Antiviral activity against 1 MOI Bovine viral diarrhea virus NADL infected in bovine MDBK cells assessed as inhibition of extracellular viral RNA production at 80 uM after 24 hrs by RT-PCR. In kind it is functional, Bovine viral diarrhea virus 1-NADL. The settings on record: Bovine viral diarrhea virus isolates and strains.
`CC1CCC(OCCCCCCN2C[C@H](O)[C@@H](O)[C@H](O)[C@H]2CO)CC1` (some centres not stated): the inhibition at 80 µM turned out to be 73%.

Test system in a further data set: not listed separately
Description: Antiviral activity against 1 MOI Bovine viral diarrhea virus NADL infected in bovine MDBK cells assessed as reduction in viral titer at 100 uM after 24 hrs by RT-PCR. In kind it is functional, Bovine viral diarrhea virus 1-NADL. The settings on record: Bovine viral diarrhea virus isolates and strains.
For the compound `CC1CCC(OCCCCCCN2C[C@H](O)[C@@H](O)[C@H](O)[C@H]2CO)CC1` (some centres not stated), the inhibition at 100 µM is 89%.

Test system in another data set: not listed separately
Description: Antiviral activity against 1 MOI Bovine viral diarrhea virus NADL infected in bovine MDBK cells assessed as reduction in viral titer at 80 uM after 24 hrs by RT-PCR. The data set is classed as functional, Bovine viral diarrhea virus 1-NADL. The settings on record: Bovine viral diarrhea virus isolates and strains.
For the compound `CC1CCC(OCCCCCCN2C[C@H](O)[C@@H](O)[C@H](O)[C@H]2CO)CC1` (some centres not stated), the inhibition at 80 µM was 89%.

A further data set has as its system Dengue virus. In words: Antiviral activity against Dengue virus C infected in african green monkey Vero cells assessed as reduction in viral titer after 72 hrs by plaque reduction assay. In kind it is functional, organism-based.
Settings: not given
Consider `Cc1ccc(C)c(OCCCCCCN2C[C@H](O)[C@@H](O)[C@H](O)[C@H]2CO)c1`, for which the EC50 is 0.1 µM and the EC90 amounted to 0.6 µM.
As for `CC1CCC(OCCCCCCN2C[C@H](O)[C@@H](O)[C@H](O)[C@H]2CO)CC1` (some centres not stated), the EC50 came to 6.75 µM and the EC90 was 13 µM.
Consider `CCCCCCCCCN1C[C@H](O)[C@@H](O)[C@H](O)[C@H]1CO`, for which the concentration giving a half-maximal response (EC50) was 1.1 µM and the EC90 came out at 3.3 µM.

A further data set concerns West Nile virus. In words: Antiviral activity against West Nile virus infected in baby hamster kidney cells assessed as reduction in viral titer after 72 hrs by plaque reduction assay.
Settings: not given
In kind it is functional, organism-based.
On to `Cc1ccc(C)c(OCCCCCCN2C[C@H](O)[C@@H](O)[C@H](O)[C@H]2CO)c1`, for which the EC50 was 1.5 µM and the EC90 turned out to be 20 µM.
`CCCCCCCCCN1C[C@H](O)[C@@H](O)[C@H](O)[C@H]1CO`: the EC50 amounted to 4 µM.

Test system in a further data set: not listed separately
In words: Cytotoxicity against BHK cells by MTT assay. In kind it is cell-based, Mesocricetus auratus. The settings on record: hamster.
Take `Cc1ccc(C)c(OCCCCCCN2C[C@H](O)[C@@H](O)[C@H](O)[C@H]2CO)c1`: the CC50 was found to be 75 µM.
The compound `CCCCCCCCCN1C[C@H](O)[C@@H](O)[C@H](O)[C@H]1CO` displayed a CC50 of 20 µM.

Test system in the next data set: not listed separately
Description: Cytotoxicity against african green monkey Vero cells by MTT assay. The settings on record: chlorocebus sabaeus. The data set is classed as cell-based.
The compound `Cc1ccc(C)c(OCCCCCCN2C[C@H](O)[C@@H](O)[C@H](O)[C@H]2CO)c1` gave a CC50 of 85 µM.
`CC1CCC(OCCCCCCN2C[C@H](O)[C@@H](O)[C@H](O)[C@H]2CO)CC1` (some centres not stated): the CC50 is greater than 40 µM.
`CCCCCCCCCN1C[C@H](O)[C@@H](O)[C@H](O)[C@H]1CO` returned a CC50 greater than 40 µM.
